This passage reports Concentration and TPO activity results from US6887890B2, “Compounds exhibiting thrombopoietin-like activities” (Chugai Seiyaku Kabushiki Kaisha, priority 2000, dated 2005).

The test system of this experiment is Mpl-expressing Ba/F3 cell line (human mpl gene). The experiment can be described thus: Measurement of thrombopoietin (TPO) activity: viable cell count of Mpl-expressing Ba/F3 cell line (Cell Count Reagent SF, absorbance 450 nm). Format: cell-based. The settings on record: for Concentration: concentration corresponding to the maximum TPO activity value; for TPO activity: maximum TPO activity value, ODt/ODs×100 relative to maximum reaction of human TPO, Mpl-expressing Ba/F3 cells cultured at 37° C. for one day, at the concentration given. As for the experimental part:
The TPO activities of the compounds of the invention obtained in the aforementioned examples were measured by the procedure described below, for evaluation of their thrombopoietic effects.
Establishment of Mpl-expressing Ba/F3 Cell Line
The human mpl gene was cloned from cDNAs of the human erythroleukemia cell line HEL by PCR, and was incorporated into pCOS1 to construct an expression vector. The expression vector was transfected into Ba/F3 cells by electroporation method, and an Mpl-expressing Ba/F3 clone was established.
Measurement of Thrombopoietin (TPO) Activity
The cytokine-eliminated Mpl-expressing Ba/F3 line was plated in a 96-well plate at 25,000 cells/well. DMSO solutions containing the compounds obtained in each of the examples were then prepared to different specified concentration ranges, and each solution was added to the Mpl-expressing Ba/F3 cell line (final DMSO concentration: ≦0.1%), and the cell were cultured at 37° C. for one day. Human TPO (by R&D Systems or Genzyme) was used as a positive control.
Each of the cultured Mpl-expressing Ba/F3 cell lines was subjected to absorbance measurement at a wavelength of 450 nm (reference wavelength: 620 nm), corresponding to the viable cell count, using Cell Count Reagent SF (by Nacalai Tesque Inc.). The TPO activity of each compound for the Mpl-expressing Ba/F3 cell line was determined based on the following formula. TPO activity (%)=ODt/ODs×100
ODs: Absorbance at maximum reaction of human TPO (wavelength: 450-620 nm).
ODt: Absorbance of test solution (wavelength: 450-620 nm).
Tables 1 and 2 show the maximum TPO activity values and the corresponding concentrations of each compound, as obtained by the test described above.

For `CCc1[nH]c2ccccc2c1CC(=O)N[C@H](CCCCN)C(=O)Nc1ccc(C(c2ccc(NC(=O)[C@@H](CCCCN)NC(=O)Cc3c(CC)[nH]c4ccccc34)cc2)c2ccc(NC(=O)[C@@H](CCCCN)NC(=O)Cc3c(CC)[nH]c4ccccc34)cc2)cc1.Cl` [Example 148, tris[4-[N-α-[2-(2-ethyl-1H-indol-3-yl)acetyl]-D-lysyl]aminophenyl]methane hydrochloride], the Concentration came to 25 µM and the TPO activity was 73.6%.

In turn, `COc1ccc2[nH]c(C)c(CC(=O)N[C@@H](CCCCN(C)C)C(=O)Nc3ccc(C(c4ccc(NC(=O)[C@H](CCCCN(C)C)NC(=O)Cc5c(C)[nH]c6ccc(OC)cc56)cc4)c4ccc(NC(=O)[C@H](CCCCN(C)C)NC(=O)Cc5c(C)[nH]c6ccc(OC)cc56)cc4)cc3)c2c1` [Example 31] showed a Concentration of 25 µM and a TPO activity of 96.4%.

`NCCCC[C@H](NC(=O)Cc1ccccc1)C(=O)Nc1ccc(C(c2ccc(NC(=O)[C@H](CCCCN)NC(=O)Cc3ccccc3)cc2)c2ccc(NC(=O)[C@H](CCCCN)NC(=O)Cc3ccccc3)cc2)cc1.O=C(O)C(F)(F)F` [Example 199, tris[4-[N-α-(2-phenylacetyl)-L-lysyl]aminophenyl]methane trifluoroacetate] had a Concentration of 12.5 µM and a TPO activity of 47.0%.

As for `COc1ccc2c(CC(=O)N[C@H](CCCCN)C(=O)Nc3ccc(C(c4ccc(NC(=O)[C@@H](CCCCN)NC(=O)Cc5c(C)[nH]c6cc(OC)ccc56)cc4)c4ccc(NC(=O)[C@@H](CCCCN)NC(=O)Cc5c(C)[nH]c6cc(OC)ccc56)cc4)cc3)c(C)[nH]c2c1.Cl` [Example 146, tris[4-[N-α-[2-(6-methoxy-2-methyl-1H-indol-3-yl)acetyl]-D-lysyl]aminophenyl]methane hydrochloride], the Concentration is 25 µM and the TPO activity is listed as 83.6%.

The compound `NCCC[C@H](NC(=O)Cc1c[nH]c2ccccc12)C(=O)Nc1ccc(C(c2ccc(NC(=O)[C@H](CCCN)NC(=O)Cc3c[nH]c4ccccc34)cc2)c2ccc(NC(=O)[C@H](CCCN)NC(=O)Cc3c[nH]c4ccccc34)cc2)cc1.O=C(O)C(F)(F)F` [Example 134, tris[4-[N-α-[2-(1H-indol-3-yl)acetyl]-L-ornithyl]aminophenyl]methane trifluoroacetate] showed a Concentration of 50 µM and a TPO activity of 67.2%.

As to `Cl.NCCCC[C@@H](NC(=O)Cc1cccc(O)c1)C(=O)Nc1ccc(C(c2ccc(NC(=O)[C@@H](CCCCN)NC(=O)Cc3cccc(O)c3)cc2)c2ccc(NC(=O)[C@@H](CCCCN)NC(=O)Cc3cccc(O)c3)cc2)cc1` [Example 159, tris[4-[N-α-[2-(3-hydroxyphenyl)acetyl]-D-lysyl]aminophenyl]methane hydrochloride], the Concentration is 25 µM and the TPO activity was found to be 18.6%.

Consider `Cl.NCCCC[C@@H](NC(=O)Cc1ccncc1)C(=O)Nc1ccc(C(c2ccc(NC(=O)[C@@H](CCCCN)NC(=O)Cc3ccncc3)cc2)c2ccc(NC(=O)[C@@H](CCCCN)NC(=O)Cc3ccncc3)cc2)cc1` [Example 173, tris[4-[N-α-[2-(pyridin-4-yl)acetyl]-D-lysyl]aminophenyl]methane hydrochloride], for which the Concentration stood at 100 µM and the TPO activity is 35.4%.

`NCCCC[C@@H](NC(=O)Cc1ccc(O)c(O)c1)C(=O)Nc1ccc(C(c2ccc(NC(=O)[C@@H](CCCCN)NC(=O)Cc3ccc(O)c(O)c3)cc2)c2ccc(NC(=O)[C@@H](CCCCN)NC(=O)Cc3ccc(O)c(O)c3)cc2)cc1.O=C(O)C(F)(F)F` [Example 188, tris[4-[N-α-[2-(3,4-dihydroxyphenyl)acetyl]-D-lysyl]aminophenyl]methane trifluoroacetate] returned a Concentration of 100 µM and a TPO activity of 10.1%.
